Data reported in US20060004029A1, “Nitrogen-containing aromatic derivatives” (priority 2003, published 2006).
pIC50: −log10 of the molar value.

Experiments:
[1] = tested on: Human Umbilical Vein Endothelial Cells (HUVECs); assay: Inhibition against sandwich tube formation by vascular endothelial cells, VEGF-stimulated; assay type: cell-based; details: HUVEC, 25 ng/ml VEGF and 10 ng/ml EGF, 4th day after addition
Method: Human Umbilical Vein Endothelial Cells (HUVECs) were isolated according to a reported method (Shinseikagaku Jikken Koza [New Biochemistry Experiment Lectures], “Saibo Baiyo Gijutsu” [Cell Culturing Techniques], p. 197-202), • and were cultured in a 5% CO2 incubator (37° C.) using EGM-2 medium (purchased from Clonetics Corp.) until the cells reached confluency.
An ice-cooled mixture of collagen: 5×RPMI 1640: reconstitution buffer (all purchased from Nitta Gelatin, Inc.) at 7:2:1 was dispensed at 0.4 ml into each well of a 24-well plate. After the solution was gelled by being stationed for 40 minutes in a 5% CO2 incubator (37° C.), HUVEC cell suspension was added at 0.4 ml to each well (using 1 to 1.2×10^5 cells, though the numbers of cells differ slightly according to the HUVEC lot), the HUVEC cell suspension being in human endothelial serum free medium (SFM, purchased from GIBCO BRL) containing added angiogenesis factors [20 ng/ml FGF2 (purchased from GIBCO BRL) and 10 ng/ml EGF (purchased from GIBCO BRL), or 25 ng/ml VEGF (purchased from Wako Pure Chemical Industries Co., Ltd.) and 10 ng/ml EGF, or 30 ng/ml HGF (purchased from R&D Co.) and 10 ng/ml EGF], and cultured overnight in a 5% CO2 incubator (37° C.). On the following day, the medium on the upper layer was aspirated off, and then 0.4 ml of an ice-cooled mixture of collagen: 5×RPMI 1640: reconstitution buffer (all purchased from Nitta Gelatin, Inc.) at 7:2:1 was superposed into each well prior to stationing for 4 hours in a 5% CO2 incubator (37° C.) for gelling. After adding 1.5 ml of an SFM solution containing each of the aforementioned angiogenesis factors and a diluted test substance onto the upper layer, culturing was performed in a 5% CO2 incubator (37° C.). Upon aspirating off the culture supernatant in each well on the 4th day after addition of the test substance, 0.4 ml of a 3.3 mg/ml MTT solution dissolved in PBS (purchased from Sigma Corp.) was added to each well and culturing was performed for approximately 2 hours in a 5% CO2 incubator (37° C.). The tubes formed in the collagen gel of each well were stained by MTT, the tube images were loaded into a computer (Macintosh), and the total length of the tubes was determined by image analysis software “MacScope” (purchased from Mitani Corp.). The ratio of the total length of the tubes formed in the well containing the test substance with respect to the total length of the tubes formed in the well containing no test substance was expressed as a percentage, and the concentration of each test substance required for 50% inhibition of tube formation (IC50) was determined from the ratio value.

[2] = tested on: KP-1/VEGF human pancreatic cancer cells; assay: In vivo angiogenesis-inducing activity using mouse dorsal air sac model; details: oral, once a day, C57BL/6N female mice, 4th day
Method: PCR was conducted using a human placenta cDNA library (Toyobo Co., Ltd.) as the template and the SEQ ID NO:1 (5′[…]3′) and SEQ ID NO:2 (5′[…]3′) of VEGF as primers. After completion of the PCR reaction, the 5′ ends were phosphorylated and an approximately 600 bp DNA band was separated by 1.2% agarose gel electrophoresis. After polymerization by self-ligation, the cDNA was cut with EcoRI and BamHI and inserted into the EcoRI and BamHI sites of vector pUC19. This was used to transform E. coli JM83, and plasmids were recovered from the transformed clones. A VEGF cDNA fragment was cut out of the plasmids with HindIII and EcoRI and then inserted into pIRES2-rsGFP vector to yield pIRES2-rsGFP/VEGF for protein expression.
After overnight culturing of KP-1 human pancreatic cancer cells (3×10^6 cells) with 10% FCS-containing RPMI 1640 medium, an Effectene Transfection Reagent Kit (Qiagen) was used for introduction of 3 μg of pIRES2-rsGFP/VEGF into the KP-1 cells. After culturing in 10% FCS-containing RPMI 1640 medium containing 600 μg/ml of Geneticin, drug-resistant cells were selected. Furthermore, GFP high-expressing cells were collected by cell sorter (Becton Dickinson) as VEGF high-expressing KP-1 cells (KP-1/VEGF).
The KP-1/VEGF cells were prepared to 5×10^5 cells/ml, and 0.5 ml thereof was dispensed into each well of a 24-well plate and cultured at 37° C. for 24 hours. The culture supernatants were collected and the VEGF levels thereof measured using a VEGF measuring kit (IBL Co., Ltd.) for confirmation of high expression.
Millipore rings (Nihon Millipore) were sealed with 0.45 μm Durapore filter membranes (Nihon Millipore) to create chambers. KP-1/VEGF human pancreatic cancer cells (3×10^6) suspended in 0.17 ml of collagen gel were injected into each chamber through the injection port, and the chambers were sealed. Approximately 10 ml of air was then injected in the dorsal skin of 6-week-old C57BL/6N female mice under anesthesia to produce pouches, and the prepared chambers were transplanted therein. About 6 hours after completing transplantation, a test substance suspended in 0.5% methyl cellulose was orally administered (0.1 ml/10 g body weight), and this was continued once a day for the next 4 days.
On the 4th day after transplanting the chambers, 0.2 ml of ^51Cr (Amersham Pharmacia)-labeled mouse erythrocytes (2.5×10^6 cpm/ml) were injected through the caudal veins of each of the mice with the transplanted chambers. After a prescribed period, the skin in contact with the chamber was excised and frozen, the section in direct contact with the chamber was precisely cut off, and the radioactivity was measured with a Y-counter. The blood volume was calculated from the radioactivity and used as an index of the in vivo angiogenesis-inducing activity. The angiogenesis volume was recorded as this measured blood volume minus the blood volume obtained with transplantation of a chamber containing only collagen gel. The experiment was conducted using 10 mice in the control (solvent-administered) group and 5 mice in each compound-administered group.

SMILES	pIC50 [1]	proportion of the angiogenesis amount after administering test substance to that of control ([2]; 30 mg/kg/day) [%]	proportion of the angiogenesis amount after administering test substance to that of control ([2]; 100 mg/kg/day) [%]
CNC(=O)n1ccc2cc(Oc3ccnc(NC(=O)N4CCC(O)CC4)c3)ccc21 [Example 39, N1-Methyl-5-(2-((4-hydroxypiperidino)carbonyl)amino-4-pyridyl)oxy-1H-1-indolecarboxamide]	8.29		
CNC(=O)n1ccc2cc(Oc3ccnc(NC(=O)N4CCC(C)(O)CC4)c3)ccc21 [Example 41, 5-(2-(((4-Hydroxy-4-methylpiperidin-1-yl)carbonyl)amino)pyridin-4-yloxy)-1H-1-indole-1-carboxylic acid methylamide]	8.68		
CNC(=O)n1ccc2cc(Oc3ccnc(NC(=O)N4CCC(N5CCCC5)CC4)c3)ccc21 [Example 46, N1-Methyl-5-(2-(((4-(pyrrolidin-1-yl)piperidin-1-yl)carbonyl)amino)pyridin-4-yloxy)-1H-1-indolecarboxamide]	8.15	59.9	43.7
CNC(=O)n1ccc2cc(Oc3ccnc(NC(=O)N4CCC(N5CCCCC5)CC4)c3)ccc21 [Example 47, N1-Methyl-5-(2-(((4-(piperidin-1-yl)piperidin-1-yl)carbonyl)amino)pyridin-4-yloxy)-1H-1-indolecarboxamide]	8.24	87.4	39.5
CNC(=O)n1ccc2cc(Oc3ccnc(NC(=O)N4CCOCC4)c3)ccc21 [Example 53, N4-(4-(1-(Methylamino)carbonyl-1H-5-indolyl)oxy-2-pyridyl)-4-morpholinecarboxamide]	8.17	43.3	44.4
